According to patent US20210330606A1, “GLUCOSE CONSUMPTION ACCELERATOR AND GLYCOLYSIS ACCELERATOR” (SHINKO SANGYO Co., Ltd., priority 2018, published 2021):

Assays:
[1] = test system: rat-derived liver cancer cells (Ry121B, subculture line); test: Lactate concentration in culture solution of liver cancer cells (relative value, control = 100); assay type: cell-based; conditions: drug 1 mg/ml, control = 100 (FIG. 7B)
Procedure: (§1) First, samples of 2-amino-1-cyclohexylethanol and 2-amino-1-phenylethanol were prepared in the same manner as in Example 1. The fibroblasts and the liver cancer cells were cultured under the same conditions as in Examples 1 and 5. […] As a control, the culture was performed in the same manner except that distilled water to which the drug was not added was added to the culture solution instead of the sample.
(§2) After the addition of the drug, the culture solution was diluted so that the weight ratio of the culture solution to distilled water was 1:19, and the lactate concentration of the diluted culture solution was measured. The lactate concentration was measured using a lactate assay kit (product name: Lactate Assay Kit-WST, product of Dojindo Laboratories).

[2] = test system: Rat-derived fibroblasts (Py-3Y1-S2, subculture strain); test: Lactate concentration in culture solution of fibroblasts (relative value, control = 100); assay type: cell-based; conditions: drug 1 mg/ml, control = 100 (FIG. 7A)
Procedure: as §1, §2

Structure (SMILES): NCC(O)c1ccccc1 (centres unmarked) [2-amino-1-phenylethanol]
- relative value of lactate concentration [1]: about 135
- relative value of lactate concentration [2]: about 185
